This note sets out measurements from patent publication US20230118497A1, “PYRAZOLE-CONTAINING POLYCYCLIC DERIVATIVE INHIBITOR, PREPARATION METHOD THEREFOR AND APPLICATION THEREOF” (Shanghai Hansoh Biomedical Co., Ltd., priority 2019, published 2023).

The target of one data set is T1, 1321N1-hP2X3 receptor (Homo sapiens, UniProt P56373).
T1 construct: host or cells: 1321N1
T1 sequence (P56373 1-397): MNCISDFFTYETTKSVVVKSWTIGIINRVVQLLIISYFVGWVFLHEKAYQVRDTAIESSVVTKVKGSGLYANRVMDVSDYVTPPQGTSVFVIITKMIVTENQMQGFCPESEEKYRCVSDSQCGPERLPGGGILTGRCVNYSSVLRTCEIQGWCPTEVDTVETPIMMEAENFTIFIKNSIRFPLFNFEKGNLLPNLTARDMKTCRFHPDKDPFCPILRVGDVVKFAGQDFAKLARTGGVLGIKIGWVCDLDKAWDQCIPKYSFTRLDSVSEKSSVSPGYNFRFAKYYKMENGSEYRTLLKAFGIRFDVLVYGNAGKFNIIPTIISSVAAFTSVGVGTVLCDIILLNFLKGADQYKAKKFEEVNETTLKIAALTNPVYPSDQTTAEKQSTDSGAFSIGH
The data set can be described thus: Calcium ion mobility (FLIPR) in cells stably expressing 1321N1-hP2X3 receptors. The data set is classed as cell-based. The conditions noted are these: calcium signal, agonist at EC80. The method, then:
Test Example 1. Determination of the Effect of the Compounds of the Present Invention on Calcium Ion Mobility in Cells Stably Expressing 1321N1-hP2X3 Receptors
To determine the inhibitory activity of the compounds on 1321N1-hP2X3 receptor.
Stably transfected cell line: 1321N1-hP2X3 (supplied by Shanghai ChemPartner Chemical Research Co., Ltd.).
(§1) Assay buffer: 1*HBSS+20 mM HEPES;
Cell culture medium: DMEM+10% FBS+75 µg/mL Hygromycin B+300 µg/mL G418;
(§2) Plating medium: DMEM+10% DPBS;
(§3) 0.5*Dye: 10*Dye stock+1.25 Probenecid+1*assay buffer+0.5 U/mL ATP hydrolytic enzyme;
(§4) 2. The cells were cultured to 70%-90% confluency in the cell culture medium at 37° C., 5% CO2. The medium was discarded, and the cells were added with 2 mL of Versene, and the cells were placed in an incubator at 37° C. for 2 to 5 min. The cells were collected by addition of 10 mL of plating medium and counted. The cells were seeded to the 384-well assay plate by addition of 50 μL solution (a density of 1×10^4 cells/well) to each well, and incubated for 16 to 24 hours (at least overnight).
(§5) 3. The medium was discarded, and 30 μL of 1× dye was added. The cells were incubated at 37° C. in the dark for 60 min.
(§6) 4. The compound powder was dissolved in DMSO to obtain a 20 mM stock solution. 180× compound with required concentration was formulated, and diluted in gradient for concentration points.
(§7) 5. Preparation of compound plate: 500 nL of 180× compound was transferred to the compound plate (source plate for FLIPR) using ECHO. 30 μL of assay buffer was added to each well, and the plate was shaken gently for 20 to 40 minutes.
(§8) 6. Determination: 15 μL of 3× compound was taken from each well and added to the cell plate. The samples were added by FLIPR instrument, and the calcium signals were detected. After 15 minutes, 22.5 μL of 3× agonist (EC80 concentration) was added to each well and the calcium signals were detected.
(§9) The calcium signal values were determined by FLIPR. The ratio of the 340/510 nm wavelength signals to 380/510 nm wavelength signals was used as the calculated results for each sampling time point in the experiment. The calculation of maximum minus minimum was derived from the ratio signal curve.
(§10) The percent inhibition rate and ten-point concentration data were fitted to the parametric nonlinear logistic equation by using GraphPad prism to calculate the IC50 values of the compounds.

Data set [1] addresses T2, CYP450 enzyme isoform 2C19 (Homo sapiens, UniProt P33261).
T2 construct: single-point method using human liver microsome incubation system; from tissue; host or cells: human liver microsomes
Kind of data set: CYP enzyme single-point inhibition assay, 2C19. The conditions noted are these: human liver microsome, single-point method. The data set is classed as in vitro ADME. The method, then:
Test Example 7. CYP Enzyme Single-Point Inhibition Assay
The inhibition of the compounds on CYP450 enzyme isoformwas rapidly predicted by single-point method using human liver microsome incubation system.
2.5 mM NADPH: 4.165 mg of NADPH (reduced nicotinamide adenine dinucleotide phosphate) was weighed, followed by addition of 100 mM phosphate buffer to 2 mL. 0.25 mg/mL microsome solution: 4 mL of 100 mM phosphate buffer was added to 50 μL of 20 mg/mL microsome solution and mixed well.
The test compound of the Example was weighed, diluted to 10 mM with DMSO and then to 100 μM with 100 mM phosphate buffer.
1. 40 μL of liver microsome, 10 μL of substrate and 10 μL of the test compound were added to a 96-well plate and pre-incubated for 3 min.
2. 40 μL of NADPH was added.
3. 300 μL of acetonitrile stop solution containing internal standard was added at 20 min.
4. The sample was centrifuged and injected.

Data set [2] can be described thus: Plasma protein binding rate (rat). The conditions noted are these: 37° C. 6 h. The data set is classed as in vitro ADME. On the procedure: Test Example 6. Assay of Plasma Protein Binding Rate
The objective of the experiment is to determine the plasma protein binding of the compounds of the Examples in plasma.
The compound of the Example was formulated into 1 mM solution A with DMSO;
The solution A was added to the plasma solution to obtain 5 μM solution B;
1) 200 μL of solution B was added to the inside of the membrane;
2) […] of PBS was added to the outside of the membrane;
3) Incubation in a water bath at 37° C. for 6 h;
4) The sample was diluted and analyzed by mass spectrometry.

The next data set deals with T3, 1321N1-hP2X2/3 receptor (Homo sapiens, UniProt P56373+Q9UBL9).
T3 construct: host or cells: 1321N1
T3 sequence (P56373 1-397): T1 sequence (P56373 1-397)
T3 sequence (Q9UBL9 1-471): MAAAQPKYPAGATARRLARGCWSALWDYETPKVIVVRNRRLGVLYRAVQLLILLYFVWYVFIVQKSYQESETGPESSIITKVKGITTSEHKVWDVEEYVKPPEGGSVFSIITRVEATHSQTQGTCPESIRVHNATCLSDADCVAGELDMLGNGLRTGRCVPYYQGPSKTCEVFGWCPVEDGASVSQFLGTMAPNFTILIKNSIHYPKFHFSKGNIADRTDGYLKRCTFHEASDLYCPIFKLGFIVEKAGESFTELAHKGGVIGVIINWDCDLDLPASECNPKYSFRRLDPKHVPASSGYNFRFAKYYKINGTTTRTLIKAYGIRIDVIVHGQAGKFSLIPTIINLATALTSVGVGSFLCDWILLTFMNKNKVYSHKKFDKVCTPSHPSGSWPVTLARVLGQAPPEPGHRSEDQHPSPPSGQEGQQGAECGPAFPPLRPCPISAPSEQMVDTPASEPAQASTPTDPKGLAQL
Kind of data set: Calcium ion mobility (FLIPR) in cells stably expressing 1321N1-hP2X2/3 receptors. Format: cell-based. The conditions noted are these: calcium signal, agonist at EC80. The method, then:
Test Example 2. Determination of the Effect of the Compounds of the Present Invention on Calcium Ion Mobility in Cells Stably Expressing 1321N1-hP2X2/3 Receptors
To determine the inhibitory activity of the compounds on 1321N1-hP2X2/3 receptor.
Stably transfected cell line: 1321N1-hP2X2/3 (supplied by Shanghai ChemPartner Chemical Research Co., Ltd.).
as §1
Cell culture medium: DMEM+10% FBS+75 μg/mL Hygromycin B+150 μg/mL G418;
as §2, §3, §4, §5, §6, §7, §8, §9, §10

T2 sequence (P33261 whole entry, canonical isoform): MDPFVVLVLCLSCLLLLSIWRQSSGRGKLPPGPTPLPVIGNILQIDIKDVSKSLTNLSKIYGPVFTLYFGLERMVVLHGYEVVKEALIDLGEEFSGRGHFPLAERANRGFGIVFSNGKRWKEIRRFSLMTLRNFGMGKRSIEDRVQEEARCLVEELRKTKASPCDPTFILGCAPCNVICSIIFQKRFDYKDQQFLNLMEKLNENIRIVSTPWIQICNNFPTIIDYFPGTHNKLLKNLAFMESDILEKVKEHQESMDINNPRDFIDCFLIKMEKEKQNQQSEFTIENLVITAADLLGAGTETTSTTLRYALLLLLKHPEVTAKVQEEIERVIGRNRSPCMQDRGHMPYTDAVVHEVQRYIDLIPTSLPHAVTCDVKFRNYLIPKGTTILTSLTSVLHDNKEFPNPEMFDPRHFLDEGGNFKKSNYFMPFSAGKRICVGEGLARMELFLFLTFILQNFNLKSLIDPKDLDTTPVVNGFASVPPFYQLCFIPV

In general, IC50 refers to the point on the concentration scale where inhibition reaches its midpoint. As usually defined, the fraction unbound is the share of the substance not bound to proteins or other matrix. `CCc1cc2n(CC(=O)Nc3ccc(F)cn3)c(=O)c3ccc(C(F)(F)F)nc3n2n1` [Example 34, 2-(2-Ethyl-5-oxo-8-(trifluoromethyl)pyrazolo[1,5-a]pyrido[3,2-e]pyrimidin-4(5H)-yl)-N-(5-fluoropyridin-2-yl)acetamide]: the IC50 at 1321N1-hP2X3 receptor was 0.0634 µM; in data set [1] it was over 100 µM; at 1321N1-hP2X2/3 receptor, 25.2 µM. The molecule further came in with a fraction unbound at 6 h, 5 μM in data set [2] of 0.044.
For `O=C(Cn1c(=O)c2ccc(C(F)(F)F)nc2n2nc(Br)cc12)Nc1ccc(F)cn1` [Example 61-A, 2-(2-bromo-5-oxo-8-(trifluoromethyl)pyrazolo[1,5-a]pyrido[3,2-e]pyrimidin-4(5H)-yl)-N-(5-fluoropyridin-2-yl)acetamide] the same measures were 0.0764 µM, over 100 µM, 6.36 µM and 0.027.
Take `N#Cc1cc2n(CC(=O)Nc3ccc(F)cn3)c(=O)c3ccc(C(F)(F)F)nc3n2n1` [Example 68, 2-(2-Cyano-5-oxo-8-(trifluoromethyl)pyrazolo[1,5-a]pyrido[3,2-e]pyrimidin-4(5H)-yl)-N-(5-fluoropyridin-2-yl)acetamide]: the IC50 on 1321N1-hP2X3 receptor is 0.0325 µM; in data set [1], over 100 µM; on 1321N1-hP2X2/3 receptor it was 5.63 µM. This molecule returned a fraction unbound at 6 h, 5 μM in data set [2] of 0.11.
`O=C(Cn1c(=O)c2ccc(C(F)(F)F)nc2n2nccc12)Nc1ccc(F)cn1` [Example 78, N-(5-Fluoropyridin-2-yl)-2-(5-oxo-8-(trifluoromethyl)pyrazolo[1,5-a]pyrido[3,2-e]pyrimidin-4(5H)-yl)acetamide]: the IC50 on 1321N1-hP2X3 receptor was 0.049 µM; in data set [1], over 100 µM; on 1321N1-hP2X2/3 receptor, 4.52 µM. For the same molecule, in data set [2], the fraction unbound at 6 h, 5 μM worked out at 0.061.
Regarding `N#Cc1cnn2c3nc(C(F)(F)F)ccc3c(=O)n(CC(=O)Nc3ccc(F)cn3)c12` [Example 80, 2-(3-Cyano-5-oxo-8-(trifluoromethyl)pyrazolo[1,5-a]pyrido[3,2-e]pyrimidin-4(5H)-yl)-N-(5-fluoropyridin-2-yl)acetamide], the IC50 on 1321N1-hP2X3 receptor turned out to be 0.0643 µM; on 1321N1-hP2X2/3 receptor, 3.04 µM. The fraction unbound at 6 h, 5 μM in data set [2] came out at 0.234.
